Results reported in article PMC12670426 (Journal of Medicinal Chemistry, 2025).

Tests used:
[1] = Cytotoxicity assay, HepG2; type: cell-based; conditions: human, HepG2 cells, viability dye, flow cytometry
Procedure: (§1) To evaluate in vitro cytotoxicity and support its potential application in inflammatory and fibrotic disease models, the following panel of cell lines, representing the relevant biological systems, was used: HEK293, HepG2, THP1, Jurkat E6.1, and LX2. HEK293, HepG2, and Jurkat E6.1 cells were seeded at 400,000 cells/mL, THP1 cells at 500,000 cells/mL, and LX2 cells at 200,000 cells/mL in 96-well plates (cell culture-treated, VWR) in 100 μL/well. Cells were treated with the tested compounds in a serial dilution (300, 100, 33.3, 11.1, and 3.7 μM) for 24 h. Untreated cells served as negative controls to establish the baseline viability threshold. Cell viability was assessed using a viability dye (Zombie Violet Fixable Viability Kit, BioLegend) following the manufacturer’s instructions and analyzed by flow cytometry (see below).
(§2) Cells or beads from screening assays prepared for flow cytometry were analyzed by the CytoFlex S instrument (Beckman Coulter). Data acquisition was performed using CytExpert software (v2.5, Beckman Coulter). Debris was excluded by forward and side scatter gating, followed by doublet exclusion. Data were analyzed using FlowJo software (v10, BD Biosciences).

[2] = Plasma stability assay, rat plasma; type: in vitro ADME; conditions: 37 °C
Procedure: (§3) Test compounds (10 μM) were incubated with mouse, rat, or human pooled plasma from 50 donors (Biowest) at 37 °C for 20, 60, and 120 min. Reactions were terminated by adding four volumes of ice-cold methanol, followed by vigorous mixing. Samples were kept at −20 °C for 30 min and then stored at 4 °C overnight. The next day, samples were centrifuged, and supernatants were diluted with four volumes of 30% methanol in water. Zero time points were prepared by adding ice-cold methanol to the compound prior to the addition of plasma. Samples were then analyzed on an Echo MS system (SCIEX) using multiple reaction monitoring (MRM). The only exception was compound 3af, which was analyzed by LC–MS/MS (SCIEX 6500 triple quadrupole) due to its weak ionization in Echo-MS.

[3] = Plasma protein binding, summary across species; type: in vitro ADME; conditions: summary across human, mouse and rat plasma
Procedure: (§4) Test compound (10 μM) was incubated at 37 °C for 4 h with mouse, rat, or human plasma (Biowest) in the donor well of a rapid equilibrium dialysis plate (Thermo Fisher Scientific). PBS was placed in the acceptor well. To stop the assay, samples were collected from both wells, and an equal volume of plasma was added to the PBS sample, and vice versa. Proteins were then precipitated by adding three volumes of ice-cold methanol. Samples were mixed gently, kept at −20 °C for 30 min, and then stored at 4 °C overnight. The next day, the samples were centrifuged, and the supernatants were diluted with four volumes of 30% methanol in water. The samples were then analyzed using the Echo-MS system (SCIEX) with MRM transition monitoring, except for compound 3af, which was analyzed by LC–MS/MS as described in the plasma stability assay.

[4] = Plasma protein binding assay (rapid equilibrium dialysis), mouse plasma; type: in vitro ADME; conditions: fraction bound, read-out: plasma protein binding Fb mouse (converted)
Procedure: as §4

[5] = Plasma stability assay, mouse plasma; type: in vitro ADME; conditions: 37 °C
Procedure: as §3

[6] = Kinetic solubility assay in PBS; type: physicochemical; conditions: aqueous buffer, kinetic from dmso stock; PBS at pH 7.4, 100 μM final, 2 h room temperature
Procedure: The solutions were incubated at room temperature for 2 h and filtered by centrifugation. Filtrates were diluted 100-fold with 50% acetonitrile in water and then analyzed on the Echo-MS system (SCIEX) using MRM transition monitoring, except for compound 3af, which was analyzed by LC–MS/MS as described in the plasma stability assay. Compound concentrations were quantified against calibration curves prepared in the identical matrix as the samples.

[7] = Microsomal stability assay, rat liver microsomes; type: in vitro ADME; conditions: pooled liver microsomes, pH 7.4, rat liver microsomes 0.5 mg/mL, NADPH
Procedure: Microsomal stability was determined using 0.5 mg/mL of pooled human, mouse, or rat liver microsomes (Thermo Fisher Scientific) in 90 mM TRIS-Cl buffer (pH 7.4) containing 2 mM NADPH and 2 mM MgCl2. Test compounds (10 μM) were added, and the resulting mixture was incubated at 37 °C for 10, 60, 120, and 180 min. The reactions were terminated by the addition of four volumes of ice-cold methanol, followed by vigorous mixing. The samples were left at −20 °C for 30 min and then stored at 4 °C overnight. The next day, samples were centrifuged, and supernatants were diluted with four volumes of 30% methanol in water. Zero time points were prepared by adding ice-cold methanol to the mixture of compounds and cofactors prior to the addition of microsomes. The samples were then analyzed using the Echo-MS system (SCIEX) with MRM transition monitoring, except for compound 3af, which was analyzed by LC–MS/MS as described in the plasma stability assay.

[8] = Cytotoxicity assay, Jurkat E6.1; type: cell-based; conditions: human, Jurkat E6.1 cells, viability dye, flow cytometry
Procedure: as §1, §2

remaining at 2 h, 10 μM [2]: 87 ± 6%
fraction unbound at 4 h, 10 μM [3]: 0.1 to 0.78
fraction unbound at 4 h, 10 μM [4]: 0.57
remaining at 2 h, 10 μM [5]: 100 ± 3%
solubility kinetic at 2 h [6]: > 100 µM
microsomal CLint at 10 μM [7]: < 2 µL/min/mg
SMILES: CC(=O)N(c1cc(C(=O)O)cc2[nH]ccc12)[C@@H]1O[C@H](CO)[C@@H](S[C@@H]2O[C@H](CO)[C@H](O)[C@H](n3cc(-c4cccc(F)c4)nn3)[C@H]2O)[C@H](O)[C@H]1O [Compound 11, N-[4-S-(3-Deoxy-3-(4-(3-fluorophenyl)-1H-1,2,3-triazol-1-yl)-β-D-galactopyranosyl)-4-thio-β-D-glucopyranosyl]-N-(6-carboxy-1H-indol-4-yl)acetamide]
CC50 at 24 h [1]: > 300 µM
CC50 at 24 h [8]: > 300 µM
